Source: US5965088A, “Method for providing rapid disinfection of contact lenses” (priority 1997, dated 1999)
Where two headings read alike, the source gives them in different places.

Test system: Serratia marcescens (ATCC 13880)
Test: Antimicrobial efficacy (stand-alone log reduction), S. marcescens
Type: cell-based
Conditions: for log reduction at 4 ppm / log reduction at 1 ppm / log reduction at 2 ppm / log reduction at 3 ppm / log reduction at 5 ppm / log reduction at 4 µg/mL: Serratia marcescens; for log reduction at 4 µg/mL: 4.0 ppm alexidine in ReNu MPS; for Log Reduction S. marcescens: PAPB 0.0
Description: This Example illustrates the microbiocidal efficacy of solutions according to the present invention. The antimicrobial efficacy of each of various compositions for the chemical disinfection of contact lenses was evaluated. Microbial challenge inoculums were prepared using Pseudomonas aeruginosa (ATCC 9027), Staphylococcus aureus (ATCC 6538), Serratia marcescens (ATCC 13880), Candida albicans (ATCC 10231), and Fusarium solani (ATCC 36031). The test organisms were cultured on appropriate agar and the cultures were harvested using sterile DPBST (Dulbecco's Phosphate Buffered Saline plus 0.05% w/v polysorbate 80) or a suitable diluent and transferred to a suitable vessel. Spore suspensions were filtered through sterile glass wool to remove hyphal fragments. Serratia marcescens, as appropriate, was filtered (eg., through a 1.2 μ filter) to clarify the suspension. After harvesting, the suspension was centrifuged at no more than 5000× g for a maximum of 30 minutes at 20-25° C. The supernatant was poured off and resuspended in DPBST or other suitable diluent. The suspension was centrifuged a second time, and resuspended in DPBST or other suitable diluent. All challenge bacterial and fungal cell suspensions were adjusted with DPBST or other suitable diluent to 1×10^7 -10^8 cfu/mL. The appropriate cell concentration may be estimated by measuring the turbidity of the suspension, for example using a spectrophotometer at a preselected wavelength, for example 490 nm. One tube was prepared containing a minimum of 10 mL of test solution per challenge organism. Each tube of the solution to be tested was inoculated with a suspension of the test organism sufficient to provide a final count of 1.0×10^5 -10^6 cfu/mL, the volume of the inoculum not exceeding 1% of the sample volume. Dispersion of the inoculum was ensured by vortexing the sample for at least 15 seconds. The inoculated product was stored at 10-25° C. Aliquots in the amount of 1.0 mL were taken of the inoculated product for determination of viable counts after certain time periods of disinfection. The time points for the bacteria were 25, 50, 75, and 100% of the minimum disinfection time. Yeast and mold were tested at an additional timepoint of at least 400% of the minimum disinfection time. The suspension was mixed well by vortexing vigorously for at least 5 second. The 1.0 mL aliquots removed at the specified time intervals were subjected to a suitable series of decimal dilutions in validated neutralizing media. The suspensions were mixed vigorously and incubated for a suitable period of time to allow for neutralization of the microbial agent. The viable count of organisms was determined in appropriate dilutions by preparation of triplicate plates of trypticase soy (TSA) agar for bacteria and Sabouraud dextrose agar (SDA) for mold and yeast. The bacterial recovery plates were incubated at 30-35° C. for 2-4 days. The yeast was incubated at 20-30° C. for 2-4 days and mold recovery plates at 20-25° C. for 3-7 days. The average number of colony forming units was determined on countable plates. Countable plates refer to 30-300 cfu/plates for bacteria and yeast, and 8 to 80 cfu/plate for mold except when colonies are observed only for the 10^0 or 10^-1 dilution plates. The microbial reduction was then calculated at the specified time points. […] Following inoculation in a validated neutralizing broth and incubation for an appropriate period of time, the inoculum control must be between 1.0×10^5 -1.0×10^6 cfu/mL
The solutions were evaluated based on the performance requirement referred to as the "Stand-Alone Procedure for Disinfecting Products" (hereafter the "stand-alone test") and is based on the Disinfection Efficacy Testing for contact lens care products under the Draft Premarket Notification (510(k)) Guidance Document For Contact Lens Care Products dated Apr. 1, 1996, prepared by the U.S. Food and Drug Administration, Division of Ophthalmic Devices. […]

SMILES: CCCCC(CC)CNC(=N)NC(=N)NCCCCCCNC(=N)NC(=N)NCC(CC)CCCC.Cl.Cl (stereo not shown) [Alexidine.2HCl, 1,1 '-hexamethylenebis(5-(2-ethylhexyl)-biguanide) dihydrochloride]
- log reduction at 4 ppm (ATCC13880, 2.5 min, 4.0 ppm, aged 18 months, Exp. 1, 2.5 min, read-out: Log Reduction): 0.5
- log reduction at 4 ppm (ATCC13880, 2.5 min, 4.0 ppm, aged 18 months, Exp. 2, 2.5 min, read-out: Log Reduction): 0.8
- log reduction at 4 ppm (ATCC13880, 2.5 min, 4.0 ppm, aged 18 months, Exp. 3, 2.5 min, read-out: Log Reduction): 0.8
- log reduction at 4 ppm (ATCC13880, 5 min): 0.6
- log reduction at 1 ppm (ATCC13880, 5 min, 1.0 ppm, read-out: Log Reduction at 5 Minutes): 0.5
- log reduction at 2 ppm (ATCC13880, 5 min, 2.0 ppm, read-out: Log Reduction at 5 Minutes): 0.8
- log reduction at 3 ppm (ATCC13880, 5 min, 3.0 ppm, read-out: Log Reduction at 5 Minutes): 1.1
- log reduction at 4 ppm (ATCC13880, 5 min, 4.0 ppm, aged 18 months, Exp. 2, 5.0 min, read-out: Log Reduction): 2
- log reduction at 4 ppm (ATCC13880, 5 min, 4.0 ppm, aged 18 months, Exp. 3, 5.0 min, read-out: Log Reduction): 2
- log reduction at 4 ppm (ATCC13880, 5 min, 4.0 ppm, read-out: Log Reduction at 5 Minutes): 2
- log reduction at 5 ppm (ATCC13880, 5 min, 5.0 ppm, read-out: Log Reduction at 5 Minutes): 2.9
- log reduction at 4 ppm (ATCC13880, 0.125 h, 4.0 ppm, aged 18 months, Exp. 1, 7.5 min, read-out: Log Reduction): 0.9
- log reduction at 4 ppm (ATCC13880, 0.125 h, 4.0 ppm, aged 18 months, Exp. 2, 7.5 min, read-out: Log Reduction): 2.8
- log reduction at 4 ppm (ATCC13880, 0.125 h, 4.0 ppm, aged 18 months, Exp. 3, 7.5 min, read-out: Log Reduction): 2.2
- log reduction at 4 ppm (ATCC13880, 10 min): 1.2
- log reduction at 1 ppm (ATCC13880, 10 min, 1.0 ppm, read-out: Log Reduction at 10 Minutes): 0.7
- log reduction at 2 ppm (ATCC13880, 10 min, 2.0 ppm, read-out: Log Reduction at 10 Minutes): 1.8
- log reduction at 3 ppm (ATCC13880, 10 min, 3.0 ppm, read-out: Log Reduction at 10 Minutes): 2.6
- log reduction at 4 ppm (ATCC13880, 10 min, 4.0 ppm, aged 18 months, Exp. 2, 10.0 min, read-out: Log Reduction): 2.8
- log reduction at 4 ppm (ATCC13880, 10 min, 4.0 ppm, aged 18 months, Exp. 3, 10.0 min, read-out: Log Reduction): 2.2
- log reduction at 4 ppm (ATCC13880, 10 min, 4.0 ppm, read-out: Log Reduction at 10 Minutes): > 4.8
- log reduction at 5 ppm (ATCC13880, 10 min, 5.0 ppm, read-out: Log Reduction at 10 Minutes): > 4.8
- log reduction at 4 ppm (ATCC13880, 0.25 h): 3
- log reduction at 4 ppm (ATCC13880, 0.25 h, 4.0 ppm, Ex. 6, aged 19 months at 25 °C, 15 min, read-out: Log Reduction): 3.2
- log reduction at 4 ppm (ATCC13880, 0.25 h, 4.0 ppm, Ex. 8, different batch aged 19 months at 25 °C, 15 min, read-out: Log Reduction): 2.5
- log reduction at 4 ppm (ATCC13880, 0.5 h, 4.0 ppm, Ex. 6, aged 19 months at 25 °C, 30 min, read-out: Log Reduction): > 4.7
- log reduction at 4 ppm (ATCC13880, 0.5 h, 4.0 ppm, Ex. 7, different lot aged 18 months, 30 min, read-out: Log Reduction): 4.7
- log reduction at 4 ppm (ATCC13880, 0.5 h, 4.0 ppm, Ex. 8, different batch aged 19 months at 25 °C, 30 min, read-out: Log Reduction): 4.6
- log reduction at 4 ppm (ATCC13880, 0.75 h, 4.0 ppm, Ex. 6, aged 19 months at 25 °C, 45 min, read-out: Log Reduction): > 4.7
- log reduction at 4 ppm (ATCC13880, 0.75 h, 4.0 ppm, Ex. 7, different lot aged 18 months, 45 min, read-out: Log Reduction): > 4.8
- log reduction at 4 ppm (ATCC13880, 0.75 h, 4.0 ppm, Ex. 8, different batch aged 19 months at 25 °C, 45 min, read-out: Log Reduction): > 4.7
- log reduction at 1 ppm (ATCC13880, 1 h, 1 ppm, 1 hr, read-out: Log Reduction): 3.5
- log reduction at 2 ppm (ATCC13880, 1 h, 2 ppm, 1 hr, read-out: Log Reduction): > 4.8
- log reduction at 3 ppm (ATCC13880, 1 h, 3 ppm, 1 hr, read-out: Log Reduction): > 4.8
- log reduction at 4 µg/mL (ATCC13880, 1 h, 1 hr): 3.7
- log reduction at 4 ppm (ATCC13880, 1 h, 4 ppm, 1 hr, read-out: Log Reduction): > 4.8
- log reduction at 4 ppm (ATCC13880, 1 h, 4.0 ppm, Ex. 6, aged 19 months at 25 °C, 60 min, read-out: Log Reduction): > 4.7
- log reduction at 4 ppm (ATCC13880, 1 h, 4.0 ppm, Ex. 7, different lot aged 18 months, 60 min, read-out: Log Reduction): > 4.8
- log reduction at 4 ppm (ATCC13880, 1 h, 4.0 ppm, Ex. 8, different batch aged 19 months at 25 °C, 60 min, read-out: Log Reduction): > 4.7
- log reduction at 5 ppm (ATCC13880, 1 h, 5 ppm, 1 hr, read-out: Log Reduction): > 4.8
- log reduction at 4 µg/mL (ATCC13880, 2 h, 2 hr): > 4.7
- log reduction at 4 µg/mL (ATCC13880, 3 h, 3 hr): > 4.7
- log reduction at 4 µg/mL (ATCC13880, 4 h, 4 hr): > 4.7
- Log Reduction S. marcescens (alexidine 0.5 ppm, 15 min): 0.6 log
- Log Reduction S. marcescens (alexidine 0.5 ppm, 30 min): 1.6 log
- Log Reduction S. marcescens (alexidine 0.5 ppm, 60 min): 2.5 log
- Log Reduction S. marcescens (alexidine 2.6 ppm, 15 min): 2.2 log
- Log Reduction S. marcescens (alexidine 2.6 ppm, 30 min): > 4.3 log
- Log Reduction S. marcescens (alexidine 2.6 ppm, 60 min): > 4.3 log
